Here are results for 25 molecules from patent US5397781A, “Pyrimidine derivatives” (Mochida Pharmaceutical Company, Limited, priority 1992, dated 1995).

Like-named read-outs stand apart in the source and are kept apart here.

Data set [1] relates to macrophages. Kind of data set: Inhibitory effect on cholesteryl ester accumulation in macrophages. In kind it is cell-based, mouse (ddy-family male mice). As to conditions: Macrophage, read-out: Inhibition activity on cholesteryl ester accumulation (IC50 grade). As for the experimental part:
Inhibitory effect on cholesteryl ester accumulation in macrophages.
Namely resident peritoneal cells suspended in phosphate-buffered saline (PBS) were plated in plastic Petri dishes (35 mm×10 mm) at a density of 2×10^6 cells. The adherent macrophages were cultured overnight at 37° C. in Dalbecco's modified Eagle medium (DME) containing 10% fetal bovine serum (FCS) under humidified 5% CO2. […] After discarding the medium, each macrophage monolayer was washed with PBS and lipids were extracted with hexane/isopropyl alcohol (3:2). Cholesteryl esters in the extract were separated by thin-layer chromatography and the radioactivity was measured by liquid scintillation counter.

The test system of data set [2] is serum total cholesterol. The experiment in a line: Hypocholesterolemic effect on cholesterol feeding rats. As to conditions: Rattus norvegicus, oral, high cholesterol diet rats, read-out: % reduction of serum total cholesterol; for inhibition in vivo at 30 mg/kg: 30 mg/kg/day; for inhibition in vivo at 10 mg/kg: 10 mg/kg/day. Format: in vivo, male Wistar rats. As for the experimental part: Hypocholesterolemic effect on cholesterol feeding rats. Male Wistar rats aged 7 weeks old were fed a diet (CE®) supplemented with 2%(w/w) cholesterol, 0.5%(w/w) sodium cholate, 10%(w/w) lard, 0.2%(w/w) propylthiouracyl and 5%(w/w) sucrose, for 3 days. Following 3 days, the compounds of the present invention were administered orally, and the animals were maintained with the high cholesterol diet. On the next day of final drug administration, blood was drown and serum total cholesterol-levels were measured enzymatically by autoanalyzer. CL277082 was used as a reference compound.

Data set [3] deals with T1, ACAT (Rattus norvegicus, UniProt Q7TQM4).
T1 construct: Liver microsomes as an enzyme sample of ACAT were prepared from overnight-fasted male rats; from tissue; host or cells: liver of overnight-fasted male rats, 6 weeks old; microsomes
T1 sequence (Q7TQM4 1-524): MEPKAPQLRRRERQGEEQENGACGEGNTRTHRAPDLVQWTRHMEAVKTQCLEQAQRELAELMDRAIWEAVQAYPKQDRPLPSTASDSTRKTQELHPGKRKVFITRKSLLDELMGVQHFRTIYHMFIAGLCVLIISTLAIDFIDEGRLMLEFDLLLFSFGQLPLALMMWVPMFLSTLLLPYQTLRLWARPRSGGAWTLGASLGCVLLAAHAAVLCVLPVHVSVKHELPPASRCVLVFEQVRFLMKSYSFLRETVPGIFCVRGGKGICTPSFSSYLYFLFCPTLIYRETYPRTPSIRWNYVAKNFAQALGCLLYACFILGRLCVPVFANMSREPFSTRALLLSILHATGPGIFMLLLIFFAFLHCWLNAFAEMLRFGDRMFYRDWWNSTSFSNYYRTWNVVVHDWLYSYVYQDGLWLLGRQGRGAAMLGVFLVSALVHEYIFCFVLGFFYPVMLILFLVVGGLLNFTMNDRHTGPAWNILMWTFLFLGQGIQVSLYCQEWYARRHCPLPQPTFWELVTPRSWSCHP
Kind of data set: Inhibitory effect on microsomal ACAT activity in rat liver. In kind it is biochemical. As to conditions: rat liver microsomes; read-out: IC50 (50% inhibition of cholesterol esterification). In general terms: Microsomes from liver hold many membrane-bound enzymes, among them those of drug oxidation.

Data set [4] relates to male Wistar rats. The experiment in a line: Acute toxicity. Format: in vivo. As to conditions: single oral dose 1 g/kg, 7 days observation. The text has this: The pyrimidine derivatives of the present invention were examined for acute toxicity by using male Wistar rats fasted over night aged 7 weeks old.
[5] abbreviates: mouse peritoneal macrophages, β-VLDL, [3H]oleic acid, 3 hrs.

Regarding `CCCCCCCN(Cc1ccc(CC(C)(C)C)cc1)C(=O)Nc1ccc(F)cc1F` [CL277082, (N'-2,4-difluorophenyl)-N-[[4-(2,2-dimethylpropyl)phenyl]methyl]-N-heptylurea, reference compound], the IC50 (usually the midpoint of a concentration-inhibition curve) in data set [1] (Mus musculus, 3 h) lay in the range of 1000 to 10000 nM. Further, in data set [2], the inhibition in vivo at 30 mg/kg worked out at 52%.

Consider `CCCCCCCN(Cc1ccccc1)c1nc(C)nc(S)c1NC(=O)CCCN(CCC)c1ccccc1` [Example 148, N-[4-(N-benzyl-N-heptylamino)-6-mercapto-2-methylpyrimidin-5-yl]-4-(N-phenyl-N propylamino)butanamide], for which the IC50 in data set [1] (setting [5]) is 10 to 100 nM; in data set [3], 55 nM.

Turning to `CCCN(CCCC(=O)Nc1c(S)ncnc1N(CCC)c1ccccc1)c1ccccc1` [Example 149, N-[4-mercapto-6-(N-phenyl-N-propylamino)pyrimidin-5-yl]-(N-phenyl-N-propylamino)butanamide], the inhibition in vivo at 30 mg/kg in data set [2] came out at 21%. Also, in data set [3], the IC50 worked out at 140 nM.

Consider `CCCN(CCC(=O)Nc1c(SC)nc(C)nc1N(CC)CC)c1ccccc1` [Example 216, N-[4-(N,N-diethylamino)-2-methyl-6-methylthiopyrimidin-5-yl]-3-(N-phenyl-N-propylamino)propionamide], for which the inhibition in vivo at 100 mg/kg in data set [2] (100 mg/kg/day) was found to be 33%. For the same molecule, the IC50 in data set [3] stood at 120 nM.

For `CCCN(CCCC(=O)Nc1c(SC)nc(C)nc1N(C)C)c1ccccc1` [Example 219, N-[4-(N,N-dimethylamino)-2-methyl-6-methylthiopyrimidin-5-yl]-4-(N-phenyl-N-propylamino)butanamide], the IC50 in data set [1] (setting [5]) is 100 to 1000 nM; in data set [3], 130 nM.

For the molecule `CCCN(CCCC(=O)Nc1c(SC)nc(C)nc1N(CC)CC)c1ccccc1` [Example 220, N-[4-(N,N-diethylamino)-2-methyl-6-methylthiopyrimidin-5-yl]-4-(N-phenyl-N-propylamino)butanamide], the IC50 in data set [1] (setting [5]) is 100 to 1000 nM; in data set [3], 52 nM. Moreover, the inhibition in vivo at 30 mg/kg in data set [2] stood at 23%.

For `CCCCN(CCCC)c1nc(C)nc(SC)c1NC(=O)CCCN(CCC)c1ccccc1` [Example 221, N-[4-(N,N-dibutylamino)-2-methyl-6-methylthiopyrimidin-5-yl]-4-(N-phenyl-N-propylamino)butanamide], the half-maximal inhibitory concentration (IC50) was 10 to 100 nM in data set [1] (setting [5]) and 29 nM in data set [3].

For `CCCCCCCN(Cc1ccccc1)c1nc(C)nc(SC)c1NC(=O)CCCN(CCC)c1ccccc1` [Example 223, N-[4-(N-benzyl-N-heptylamino)-2-methyl-6-methylthiopyrimidin-5-yl]-4-(N-phenyl-N-propylamino)butanamide], the figures for the IC50 in data set [1] (setting [5]) and in data set [3] were 10 to 100 nM and 64 nM, respectively. In addition, the inhibition in vivo at 10 mg/kg in data set [2] turned out to be 70%.

On to `CCCCCCN(CCCC(=O)Nc1c(SC)nc(C)nc1N(CC)CC)c1ccccc1` [Example 225, N-[4-(N,N-diethylamino)-2-methyl-6-methylthiopyrimidin-5-yl]-4-(N-hexyl-N-phenylamino)butanamide], for which the IC50 is 10 to 100 nM in data set [1] (setting [5]) and 19 nM in data set [3]. In data set [2], the inhibition in vivo at 10 mg/kg was determined as 64%.

For the molecule `CCCCCCN(CCCC(=O)Nc1c(SC)nc(C)nc1N1CCOCC1)c1ccccc1` [Example 231, N-[2-methyl-4-methylthio-6-morpholinopyrimidin-5-yl]-4-(N-hexyl-N-phenylamino)butanamide], the “lethal incident (acute toxicity)” value in data set [4] is reported as “no lethal incident was observed”.

Turning to `CCCN(CCCC(=O)Nc1c(SC)nc(C)nc1N(CC)CC)c1ccc(OC)cc1` [Example 238, N-[4-(N,N-diethylamino)-2-methyl-6-methylthiopyrimidin-5-yl]-4-[N-(4-methoxyphenyl)-N-propylamino)butanamide], the IC50 in data set [1] (setting [5]) is 100 to 1000 nM; in data set [3] it was 110 nM. The inhibition in vivo at 10 mg/kg in data set [2] is 65%.

Turning to `CCCCCCN(CCCC(=O)Nc1c(SC)nc(C)nc1N(CC)CC)c1ccccc1OC` [Example 240, N-[4-(N,N-diethylamino)-2-methyl-6-methylthiopyrimidin-5-yl]-4-[N-hexyl-N-(2-methoxyphenyl)amino]butanamide], the IC50 in data set [3] was determined as 73 nM. For the same molecule, the “lethal incident (acute toxicity)” value in data set [4] is recorded as “no lethal incident was observed”.

With `CCCN(CCCCC(=O)Nc1c(SC)nc(C)nc1N(CC)Cc1ccccc1)c1ccccc1` [Example 248, N-[4-(N-benzyl-N-ethylamino)-2-methyl-6-methylthiopyrimidin-5-yl]-5-(N-phenyl-N-propylamino)pentanamide], the IC50 in data set [3] was determined as 32 nM.

In the case of `CCCCCCCN(Cc1ccccc1)c1nc(C)nc(SC)c1NC(=O)CCCCN(CCC)c1ccccc1` [Example 249, N-[4-(N-benzyl-N-heptylamino)-2-methyl-6-methylthiopyrimidin-5-yl]-5-(N-phenyl-N-propylamino)pentanamide], the IC50 in data set [1] (setting [5]) was 100 to 1000 nM; in data set [3], 160 nM.

Take `CCCCN(CCCC)c1ncnc(SC)c1NC(=O)CCCCN(CCC)c1ccccc1` [Example 250, N-[4-(N,N-dibutylamino)-6-methylthiopyrimidin-5-yl]-5-(N-phenyl-N-propylamino)pentanamide]: in data set [3], the IC50 is 9.6 nM.

Consider `CCCCCCN(CCCCC(=O)Nc1c(SC)nc(C)nc1N(CC)CC)c1ccccc1` [Example 252, N-[4-(N,N-diethylamino)-2-methyl-6-methylthiopyrimidin-5-yl]-5-(N-hexyl-N-phenylamino)pentanamide], for which the IC50 in data set [3] turned out to be 33 nM.

With `CCCSc1nc(C)nc(N(CCC)c2ccccc2)c1NC(=O)CCCN(CCC)c1ccccc1` [Example 256, N-[2-methyl-4-(N-phenyl-N-propylamino)-6-propylthiopyrimidin-5-yl]-4-(N-phenyl-N-propylamino)butanamide], the IC50 in data set [3] is 100 nM.

For `CCCCCCSc1nc(C)nc(N(CCC)c2ccccc2)c1NC(=O)CCCN(CCC)c1ccccc1` [Example 257, N-[4-hexylthio-2-methyl-6-(N-phenyl-N-propylamino)pyrimidin-5-yl]-4-(N-phenyl-N-propylamino)butanamide], in data set [3], the IC50 was found to be 220 nM.

As for `CCCN(CCCC(=O)Nc1c(SCc2ccccc2)nc(C)nc1N(CCC)c1ccccc1)c1ccccc1` [Example 258, N-[4-benzylthio-2-methyl-6-(N-phenyl-N-propylamino)pyrimidin-5-yl]-4-(N-phenyl-N-propylamino)butanamide], in data set [3], the IC50 stood at 230 nM.

Take `CCCN(CCCC(=O)Nc1c(SCc2ccccc2)nc(C)nc1N(CC)CC)c1ccccc1` [Example 259, N-[4-benzylthio-6-(N,N-dietylamino)-2-methylpyrimidin-5-yl]-4-(N-phenyl-N-propylamino)butanamide]: the IC50 in data set [3] amounted to 76 nM.

In the case of `CCCCCCN(CCCC(=O)Nc1c(SCCC)nc(C)nc1N(CC)CC)c1ccccc1` [Example 261, N-[4-(N,N-dietylamino)-2-methyl-6-propylthiopyrimidin-5-yl]-4-(N-hexyl-N-phenylamino)butanamide], the IC50 in data set [3] was 23 nM.

As for `CCCN(CCCC(=O)Nc1c(OCc2ccccc2)nc(C)nc1C(C)C)c1ccccc1` [Example 263, N-(4-benzyloxy-6-isopropyl-2-methylpyrimidin-5-yl)-4-(N-phenyl-N-propylamino)butanamide], in data set [3], the IC50 amounted to 100 nM.

Consider `CCCN(CCCC(=O)Nc1c(C(C)C)nc(C)nc1N(CC)CC)c1ccccc1` [Example 266, N-[4-(N,N-diethylamino)-6-isopropyl-2-methylpyrimidin-5-yl]-4-(N-phenyl-N-propylamino)butanamide], for which, in data set [3], the half-maximal inhibitory concentration (IC50) was determined as 170 nM.

For `CCCN(CCCC(=O)Nc1c(SC)nc(C)nc1C(C)C)c1ccccc1` [Example 268, N-(4-isopropyl-2-methyl-6-methylthiopyrimidin-5-yl)-4-(N-phenyl-N-propylamino)butanamide], the IC50 in data set [3] stood at 56 nM.

Regarding `CCCCCCN(CCCC(=O)Nc1c(SC)nc(C)nc1N(CC)CC)c1ccc(Br)cc1` [Example 272, 4-[N-(4-bromophenyl)-N-hexylamino]-N-[4-(N,N-diethylamino)-2-methyl-6-methylthiopyrimidin-5yl]butanamide], the IC50 in data set [3] is 37 nM.
